Values of other authors, collected in patent US20240139350A1, “RADIOACTIVELY LABELED LIGAND FOR FIBROBLAST ACTIVATION PROTEIN-ALPHA IMAGING AGENT AND PREPARATION METHOD THEREFOR” (FIVE ELEVEN PHARMA, INC, priority 2021, published 2024).

Experiments:
murine FAP = biological target: T1, murine FAP (Mus musculus, UniProt P97321); conditions: human embryonic kidney cells expressing mouse FAP
T1 construct: expressed in transfected cells; host or cells: human embryonic kidney cells
T1 sequence (P97321 1-761): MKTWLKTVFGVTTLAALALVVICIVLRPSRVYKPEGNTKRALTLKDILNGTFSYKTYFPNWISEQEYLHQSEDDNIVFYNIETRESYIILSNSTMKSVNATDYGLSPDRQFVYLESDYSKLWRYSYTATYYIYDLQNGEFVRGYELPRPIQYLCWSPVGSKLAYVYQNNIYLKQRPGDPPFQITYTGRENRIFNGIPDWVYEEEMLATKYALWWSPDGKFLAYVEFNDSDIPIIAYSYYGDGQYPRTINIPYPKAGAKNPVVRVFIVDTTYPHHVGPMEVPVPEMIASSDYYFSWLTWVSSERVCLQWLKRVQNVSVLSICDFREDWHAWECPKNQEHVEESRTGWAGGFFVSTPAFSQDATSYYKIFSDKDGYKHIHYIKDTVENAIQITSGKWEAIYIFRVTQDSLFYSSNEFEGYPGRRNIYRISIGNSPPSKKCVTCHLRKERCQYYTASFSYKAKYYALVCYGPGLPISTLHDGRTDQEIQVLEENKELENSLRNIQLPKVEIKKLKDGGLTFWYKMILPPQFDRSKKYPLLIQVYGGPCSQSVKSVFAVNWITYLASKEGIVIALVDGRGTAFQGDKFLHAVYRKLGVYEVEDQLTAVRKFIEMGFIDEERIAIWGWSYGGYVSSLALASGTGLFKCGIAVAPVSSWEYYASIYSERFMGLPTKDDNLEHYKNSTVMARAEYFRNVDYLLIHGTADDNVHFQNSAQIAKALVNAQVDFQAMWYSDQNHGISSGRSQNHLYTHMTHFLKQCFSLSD

[1] = coordination to Ga^3+
[2] = biological target: T2, dipeptidyl peptidase 4 (CD26) (Homo sapiens, UniProt P27487); conditions: human embryonic kidney cells transfected with CD26
T2 construct: expressed in transfected cells; host or cells: human embryonic kidney cells
T2 sequence (P27487 whole entry, species assumed): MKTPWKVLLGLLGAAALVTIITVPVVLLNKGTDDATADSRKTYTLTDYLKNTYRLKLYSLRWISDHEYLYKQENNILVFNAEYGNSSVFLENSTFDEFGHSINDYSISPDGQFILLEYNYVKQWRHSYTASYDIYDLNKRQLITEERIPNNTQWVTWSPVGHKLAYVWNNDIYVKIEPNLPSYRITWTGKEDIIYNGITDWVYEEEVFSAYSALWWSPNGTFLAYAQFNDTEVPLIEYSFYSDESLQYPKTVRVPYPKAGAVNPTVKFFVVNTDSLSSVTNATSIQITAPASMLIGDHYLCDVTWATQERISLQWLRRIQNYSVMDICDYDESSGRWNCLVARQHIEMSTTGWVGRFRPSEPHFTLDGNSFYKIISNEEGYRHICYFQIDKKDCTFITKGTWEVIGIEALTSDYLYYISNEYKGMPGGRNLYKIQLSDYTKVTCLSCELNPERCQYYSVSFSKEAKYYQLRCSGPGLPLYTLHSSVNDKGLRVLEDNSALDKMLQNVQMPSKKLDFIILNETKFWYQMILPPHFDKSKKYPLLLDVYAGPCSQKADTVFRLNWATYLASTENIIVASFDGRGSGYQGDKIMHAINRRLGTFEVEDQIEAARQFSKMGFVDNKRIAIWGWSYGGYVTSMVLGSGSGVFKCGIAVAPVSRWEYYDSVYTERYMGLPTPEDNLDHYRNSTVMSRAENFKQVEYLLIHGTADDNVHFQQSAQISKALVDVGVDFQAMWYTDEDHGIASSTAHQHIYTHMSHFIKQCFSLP

FAP-positive tumor = conditions: after 24 hours, relative to FAPI-02

| Compound | binding to murine FAP (murine FAP) | thermodynamically stable constant log KML [1] | further results |
| --- | --- | --- | --- |
| N#C[C@@H]1CCCN1C(=O)CNC(=O)c1ccnc2ccc(OCCCN3CCN(C(=O)CN4CCN(CC(=O)O)CCN(CC(=O)O)CCN(CC(=O)O)CC4)CC3)cc12 [FAPI-02] | strong binding | – | – |
| O=C(O)CN1CCN(CC(=O)O)CCN(CC(=O)O)CCN(CC(=O)O)CC1 [DOTA] | – | 21.3 | – |
| N#C[C@@H]1CC(F)(F)CN1C(=O)CNC(=O)c1ccnc2ccc(OCCCN3CCN(C(=O)CN4CCN(CC(=O)O)CCN(CC(=O)O)CCN(CC(=O)O)CC4)CC3)cc12 [FAPI-04] | strong binding | – | binding to CD26 [2]: did not bind |
| N#C[C@@H]1CC(F)(F)CN1C(=O)CNC(=O)c1ccnc2ccc(OCCCN3CCN(C(=O)CN4CCN(CC(=O)O)CCN(CC(=O)O)CCN(CC(=O)O)CC4)CC3)cc12 (177Lu complex, metal not drawn) [FAPI-04] | – | – | effective tumor uptake higher than FAPI-02 (FAP-positive tumor): 100% |
| CC1(N(CC(=O)O)CC(=O)O)CN(CC(=O)O)CCN(CC(=O)O)C1 [AAZTA] | – | 22.18 | – |
| O=C(O)CN1CCN(CC(=O)O)CCN(CC(=O)O)CC1 [NOTA] | – | 31.0 | – |
